From patent US20070105160A1, “Detection of intracellular enzyme complex” (DiscoveRx, priority 2005, published 2007)

Assays:
[1] = biological target: T1, glucocorticoid receptor (GR) (Homo sapiens, UniProt P04150); experiment: PathHunter GR translocation EFC assay, agonist mode, chemiluminescent detection; assay type: cell-based; conditions: CHO-EA+GR-PL (PathHunter) cells, agonist 3 hours, plate read after 60 minutes, FIG. 1
T1 construct: expressed in transfected cells; host or cells: CHO-K1 stably expressing EA-NLS/NRS (CHO-EA+GR-PL, 'PathHunter' cells)
T1 sequence (P04150 1-777): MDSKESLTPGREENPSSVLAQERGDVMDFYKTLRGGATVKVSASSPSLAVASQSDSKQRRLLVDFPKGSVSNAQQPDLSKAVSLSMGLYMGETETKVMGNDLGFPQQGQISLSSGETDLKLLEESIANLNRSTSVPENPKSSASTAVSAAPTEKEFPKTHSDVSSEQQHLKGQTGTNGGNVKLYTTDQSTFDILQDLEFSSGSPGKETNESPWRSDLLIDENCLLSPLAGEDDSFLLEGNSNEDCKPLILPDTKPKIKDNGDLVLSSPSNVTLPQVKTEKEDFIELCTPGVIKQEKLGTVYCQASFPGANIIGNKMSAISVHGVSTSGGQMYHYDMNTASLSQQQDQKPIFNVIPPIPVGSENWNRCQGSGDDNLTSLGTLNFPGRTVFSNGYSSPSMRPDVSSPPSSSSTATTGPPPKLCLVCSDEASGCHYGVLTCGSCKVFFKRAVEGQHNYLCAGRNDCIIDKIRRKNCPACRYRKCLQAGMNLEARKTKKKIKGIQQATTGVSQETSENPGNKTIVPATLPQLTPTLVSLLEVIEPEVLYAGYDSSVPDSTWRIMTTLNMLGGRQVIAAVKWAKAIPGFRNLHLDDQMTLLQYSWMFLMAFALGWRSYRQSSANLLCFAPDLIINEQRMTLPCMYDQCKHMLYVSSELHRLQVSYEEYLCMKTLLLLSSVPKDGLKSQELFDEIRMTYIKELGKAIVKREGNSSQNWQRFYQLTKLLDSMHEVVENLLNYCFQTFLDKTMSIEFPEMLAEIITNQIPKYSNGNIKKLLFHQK
Experimental: • 5 mM Potassium phosphate (dibasic) • 5 mM Potassium phosphate (monobasic) • 150 mM Sodium Chloride • 10 mM Magnesium Acetate • 2% CHAPS • pH6.9 Reagent Buffer/Substrate Formulation/Mixture Used in the Assay: • 1 part Galacton Star (ABI) • 5 parts Emerald II enhancer (ABI) • 19 parts Lysis buffer with 2% CHAPS (DX) Assay Protocol (96 Well Assay Format) • 1. 10,000 CHO-EA+GR-PL cells/well in a volume of 100 μL are plated in a Costar 96 well white, clear bottom plate and allowed to adhere overnight at 37° C./5% CO2 in an incubator. • 2. […] The reaction is incubated for 3-4 hours in a 37° C./5% CO2 incubator. • 4. To the reaction, equal aliquots from 50 mL of reagent solution are added to the wells. • 5. The plate is read on a standard multiwell plate reader that can measure luminescent activity. (e.g., Wallac Victor II or Packard Lumicount) after 30 and 60 minutes. […]
(§1) 10,000 cells/well were plated in a white Costar® 96 well plate and allowed to adhere overnight. […] To the reaction, 50 μL of cell lysis/substrate solution was added and the plate was read in a Wallace Victor 2 plate reader after 60 minutes. […] Antagonist studies were also performed using titrating amounts of geldenamycin (1-1000 nM) pre-incubated with the PathHunter cells for 1 hour prior to being treated with an agonist (at the EC80 concentration) for 3 hours and the EFC activity was measured.

[2] = biological target: glucocorticoid receptor (GR); experiment: PathHunter GR translocation EFC assay, antagonist mode (pre-incubation before agonist); assay type: cell-based, human; conditions: pre-incubated 1 hour
Experimental: • 5 mM Potassium phosphate (dibasic) • 5 mM Potassium phosphate (monobasic) • 150 mM Sodium Chloride • 10 mM Magnesium Acetate • 2% CHAPS • pH6.9 Reagent Buffer/Substrate Formulation/Mixture Used in the Assay: • 1 part Galacton Star (ABI) • 5 parts Emerald II enhancer (ABI) • 19 parts Lysis buffer with 2% CHAPS (DX) Assay Protocol (96 Well Assay Format) • 1. 10,000 CHO-EA+GR-PL cells/well in a volume of 100 μL are plated in a Costar 96 well white, clear bottom plate and allowed to adhere overnight at 37° C./5% CO2 in an incubator. • 2. […] The reaction is incubated for 3-4 hours in a 37° C./5% CO2 incubator. • 4. To the reaction, equal aliquots from 50 mL of reagent solution are added to the wells. • 5. The plate is read on a standard multiwell plate reader that can measure luminescent activity. (e.g., Wallac Victor II or Packard Lumicount) after 30 and 60 minutes.
The glucocorticoid receptor (GR) was subcloned by using a pCMV-GR-PL construct generated by Panomics, Inc. as pcr template, adding Bgl 2 and Kpn I sites at the 5′ and 3′ ends respectively. The GR sequence was based on and confirmed to match the RefSeq NM_000176 for the human GR. […] This plasmid was transiently transfected into a stable CHO-K1+EA-NLS/NRS expressing cell line. Clonal selection for cells expressing both EA-NLS/NRS and GR-PL was performed as described above except the cells were subjected to double antibiotic selection (hygromycin and Geneticin/G418).
as §1

| SMILES | EC50 [1] [nM] | IC50 ([2]; then 1 μM hydrocortisone as agonist for 3 hours) [nM] | IC50 ([2]; then 1 μM prednisolone as agonist for 3 hours) [nM] | IC50 ([2]; then dexamethasone treatment (EC80 concentration) for 3 hours, FIG. 2) [nM] |
| --- | --- | --- | --- | --- |
| C[C@]12C=CC(=O)C=C1CC[C@H]1[C@@H]3C[C@@H](O)[C@](O)(C(=O)CO)[C@@]3(C)C[C@H](O)[C@@]12F [triamcinolone] | 62.9 |  |  |  |
| COC1=C2C[C@@H](C)C[C@H](OC)[C@H](O)[C@@H](C)/C=C(\C)[C@H](OC(N)=O)[C@@H](OC)/C=C\C=C(/C)C(=O)NC(=CC1=O)C2=O [geldenamycin] |  | 23.8 | 22.3 | 11.6 |
